# Earlier results as cited in US20250241996A1, “COMBINATORIAL, AND ROTATIONAL COMBINATORIAL THERAPIES” (Starrock Pharma Inc., priority 2022, published 2025).
# Where two headings read alike, the source gives them in different places.
# B1: adiponectin: 244-amino-acid-long polypeptide (SEQ ID NO:2) (protein, listed as Homo sapiens)
# chain: MLLLGAVLLLLALPGHDQETTTQGPGVLLPLPKGACTGWMAGIPGHPGHNGAPGRDGRDGTPGEKGEKGDPGLIGPKGDIGETGVPGAEGPRGFPGIQGRKGEPGEGAYVYRSAFSVGLETYVTIPNMPIRFTKIFYNQQNHYDGSTGKFHCNIPGLYYFAYHITVYMKDVKVSLFKKDKAMLFTYDQYQENNVDQASGSVLLHLEVGDQVWLQVYGEGERNGLYADNDNDSTFTGFLLYHDTN
# modifications: Adiponectin
# B2: PYY: 36-amino acid peptide released from cells in the ileum and colon (peptide, listed as Homo sapiens)
# chain: MVFVRRPWPALTTVLLALLVCLGALVDAYPIKPEAPREDASPEELNRYYASLRHYLNLVTRQRYGKRDGPDTLLSKTFFPDGEDRPVRSRSEGPDLW
# modifications: Peptide tyrosine-tyrosine (PYY)
# notes: 36-amino acid peptide released from cells in the ileum and colon
# Tests used:
# [1] = Model: in vitro; cited from earlier work
# [2] = oral administration; mice; cited from earlier work
# [3] = intravenous; 18 obese patients; cited from earlier work
# [4] = injections, 4-week study; saline 0.5±0.5 kg; cited from earlier work
# [5] = cited from earlier work; for average weight reduction (efficacy estimate): placebo 2.4%; for treatment discontinuation rate due to adverse events: placebo 2.6%; for overall treatment discontinuation rate: placebo 26.4%; for people achieving at least 5% body weight reductions: placebo 28%; for Body weight change from baseline / Estimated mean weight change / Patients with weight loss of >5% / Patients with weight loss of >20%: week 72
# [6] = cited from earlier work
# [7] = cited from earlier work; remark: listed apart in the source
# [8] = two hours after infusion, P<0.001, cited from earlier work
molecule,measurement,setting,value
O=C1CCC(N2C(=O)c3ccccc3C2=O)C(=O)N1 (stereo not drawn) [Thalidomide],Results,[1],decrease TNF-α from Aβ42-
enterostatin,serum cholesterol,[2],reduce serum cholesterol after oral administration in mice
same,"feelings of hunger, satiety, or food preference",[3],"did not impact feelings of hunger, satiety, or food preference"
oxyntomodulin: 37-amino acid peptide hormone (SEQ ID NO:4) (HSQGTFTSDYSKYLDSRRAQDFVQWLMNTKRNRNNIA; Oxyntomodulin (OXY/OXM 53-89); listed as Homo sapiens),average weight loss,[4],2.3 ± 0.4 kg
tirzepatide,average weight reduction (efficacy estimate),[5]; 5 mg,16.0%
same,treatment discontinuation rate due to adverse events,[5]; 5 mg,4.3%
same,overall treatment discontinuation rate,[5]; 5 mg,14.3%
same,people achieving at least 5% body weight reductions,[5]; 5 mg,89%
same,average weight reduction (efficacy estimate),[5]; 10 mg,21.4%
same,treatment discontinuation rate due to adverse events,[5]; 10 mg,7.1%
same,overall treatment discontinuation rate,[5]; 10 mg,16.4%
same,people achieving at least 5% body weight reductions,[5]; 10 mg,96%
same,average weight reduction (efficacy estimate),[5]; 15 mg,22.5%
same,treatment discontinuation rate due to adverse events,[5]; 15 mg,6.2%
same,overall treatment discontinuation rate,[5]; 15 mg,15.1%
same,people achieving at least 5% body weight reductions,[5]; 15 mg,96%
same,body weight lost (up to),"[5]; 5, 10, 15 mg, 72 weeks",≤ 52 lb.
same,Body weight change from baseline,[5]; SC 5 mg,-16 kg
same,Estimated mean weight change,[5]; SC 5 mg,−15%
same,Patients with weight loss of >5%,[5]; SC 5 mg,85%
same,Patients with weight loss of >20%,[5]; SC 5 mg,30%
same,Body weight change from baseline,[5]; SC 10 mg,-22 kg
same,Estimated mean weight change,[5]; SC 10 mg,−19.5%
same,Patients with weight loss of >5%,[5]; SC 10 mg,89%
same,Patients with weight loss of >20%,[5]; SC 10 mg,50%
same,Body weight change from baseline,[5]; SC 15 mg,-24 kg
same,Estimated mean weight change,[5]; SC 15 mg,−20.9%
same,Patients with weight loss of >5%,[5]; SC 15 mg,91%
same,Patients with weight loss of >20%,[5]; SC 15 mg,57%
same,trial participants experiencing abdominal pain,[5]; in vivo,5%
same,trial participants experiencing constipation,[5]; in vivo,7%
same,trial participants experiencing diarrhea,[5]; in vivo,17%
same,trial participants experiencing nausea,[5]; in vivo,18%
same,trial participants experiencing vomiting,[5]; in vivo,9%
same,long-term blood sugar control (A1C) and weight loss compared to semaglutide,"[6]; human, in vivo","significantly better long-term blood sugar control (i.e., A1C) and weight loss compared to semaglutide"
same,body weight reduction,"[6]; phase III, type 2 diabetes, semaglutide comparator at 1 mg",> 15%
B1,half-life,[7],2.5 h
B2,decrease of caloric intake during a buffet lunch,[8]; lean subjects,31%
same,decrease of caloric intake during a buffet lunch,[8]; obese subjects,30%
